Measured values: PubChem BioAssay (NCI)
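Compound exposure: 48 hours, 5 concentrations, 96-well plates. At the TGI there is no net growth.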

Assays:
Experiment in all cases: NCI anticancer screen, dose series, 48 h
HCC-2998 colon = test system: HCC-2998 colon
UACC-62 melanoma = test system: UACC-62 melanoma
MDA-MB-231 breast = test system: MDA-MB-231 breast
SK-MEL-5 melanoma = test system: SK-MEL-5 melanoma
MDA-MB-435 = test system: MDA-MB-435
NCI-H460 lung = test system: NCI-H460 lung
U251 CNS = test system: U251 CNS
SK-MEL-2 melanoma = test system: SK-MEL-2 melanoma
M14 melanoma = test system: M14 melanoma
BT-549 breast = test system: BT-549 breast
SF-268 CNS = test system: SF-268 CNS
NCI-H23 lung = test system: NCI-H23 lung
IGROV1 ovarian = test system: IGROV1 ovarian
COLO 205 colon = test system: COLO 205 colon
T-47D breast = test system: T-47D breast
SNB-75 CNS = test system: SNB-75 CNS
SW-620 colon = test system: SW-620 colon
OVCAR-5 ovarian = test system: OVCAR-5 ovarian
EKVX NSCLC = test system: EKVX NSCLC
A549 NSCLC = test system: A549 NSCLC
MALME-3M melanoma = test system: MALME-3M melanoma
A498 renal = test system: A498 renal
HCT-116 colon = test system: HCT-116 colon
NCI-H226 lung = test system: NCI-H226 lung
PC-3 prostate = test system: PC-3 prostate
NCI-H522 lung = test system: NCI-H522 lung
HS 578T breast = test system: HS 578T breast
CAKI-1 renal = test system: CAKI-1 renal
SNB-19 CNS = test system: SNB-19 CNS
MOLT-4 leukemia = test system: MOLT-4 leukemia
SF-295 CNS = test system: SF-295 CNS
RPMI-8226 leukemia = test system: RPMI-8226 leukemia
OVCAR-3 ovarian = test system: OVCAR-3 ovarian
786-0 renal = test system: 786-0 renal
MDA-N = test system: MDA-N
KM12 colon = test system: KM12 colon
SR leukemia = test system: SR leukemia
UO-31 renal = test system: UO-31 renal
CCRF-CEM leukemia = test system: CCRF-CEM leukemia
OVCAR-4 ovarian = test system: OVCAR-4 ovarian
HOP-62 NSCLC = test system: HOP-62 NSCLC
LOX IMVI melanoma = test system: LOX IMVI melanoma
SK-OV-3 ovarian = test system: SK-OV-3 ovarian
HCT-15 colon = test system: HCT-15 colon
ACHN renal = test system: ACHN renal
UACC-257 melanoma = test system: UACC-257 melanoma
SK-MEL-28 melanoma = test system: SK-MEL-28 melanoma
HOP-92 NSCLC = test system: HOP-92 NSCLC
HT29 colon = test system: HT29 colon
DU-145 prostate = test system: DU-145 prostate
TK-10 renal = test system: TK-10 renal
SN12C renal = test system: SN12C renal
OVCAR-8 ovarian = test system: OVCAR-8 ovarian
MCF7 breast = test system: MCF7 breast
HL-60(TB) leukemia = test system: HL-60(TB) leukemia
RXF 393 renal = test system: RXF 393 renal
SF-539 CNS = test system: SF-539 CNS
NCI/ADR-RES ovarian = test system: NCI/ADR-RES ovarian
K-562 leukemia = test system: K-562 leukemia

O=C1CCCCC/C1=C\c1ccc(Cl)cc1 gave a TGI (HCC-2998 colon) of 96.2 µM, a TGI (UACC-62 melanoma) of over 100 µM and a TGI (MDA-MB-231 breast) of over 100 µM. For the same compound, the TGI (SK-MEL-5 melanoma) was 35.2 µM, the TGI (MDA-MB-435) was 58.2 µM and the TGI (NCI-H460 lung) was over 100 µM. It also gave a TGI (U251 CNS) of over 100 µM, a TGI (SK-MEL-2 melanoma) of over 100 µM and a TGI (M14 melanoma) of over 100 µM. For the same compound, the TGI (BT-549 breast) was over 100 µM, the TGI (SF-268 CNS) was 55.5 µM and the TGI (NCI-H23 lung) was over 100 µM. For the same compound, the TGI (IGROV1 ovarian) was over 100 µM, the TGI (COLO 205 colon) was 40.8 µM and the TGI (T-47D breast) was over 100 µM. The TGI (SNB-75 CNS) was 81.3 µM, the TGI (SW-620 colon) was 61.2 µM and the TGI (OVCAR-5 ovarian) was over 100 µM. For the same compound, the TGI (EKVX NSCLC) was over 100 µM, the TGI (A549 NSCLC) was over 100 µM and the TGI (MALME-3M melanoma) was over 100 µM. The TGI (A498 renal) was over 100 µM, the TGI (HCT-116 colon) was over 100 µM and the TGI (NCI-H226 lung) was over 100 µM. The TGI (PC-3 prostate) was 48.4 µM, the TGI (NCI-H522 lung) was 73 µM and the TGI (HS 578T breast) was 57.8 µM. For the same compound, the TGI (CAKI-1 renal) was over 100 µM, the TGI (SNB-19 CNS) was over 100 µM and the TGI (MOLT-4 leukemia) was 95.1 µM. The TGI (SF-295 CNS) was 56.6 µM, the TGI (RPMI-8226 leukemia) was 82.2 µM and the TGI (OVCAR-3 ovarian) was over 100 µM. For the same compound, the TGI (786-0 renal) was over 100 µM, the TGI (MDA-N) was over 100 µM and the TGI (KM12 colon) was 51.4 µM. For the same compound, the TGI (SR leukemia) was over 100 µM, the TGI (UO-31 renal) was over 100 µM and the TGI (CCRF-CEM leukemia) was 50.3 µM. For the same compound, the TGI (OVCAR-4 ovarian) was 84.9 µM, the TGI (HOP-62 NSCLC) was over 100 µM and the TGI (LOX IMVI melanoma) was over 100 µM. It also gave a TGI (SK-OV-3 ovarian) of over 100 µM, a TGI (HCT-15 colon) of over 100 µM and a TGI (ACHN renal) of over 100 µM. For the same compound, the TGI (UACC-257 melanoma) was over 100 µM, the TGI (SK-MEL-28 melanoma) was over 100 µM and the TGI (HOP-92 NSCLC) was 98 µM. The TGI (HT29 colon) was 54.5 µM, the TGI (DU-145 prostate) was over 100 µM and the TGI (TK-10 renal) was over 100 µM. The TGI (SN12C renal) was over 100 µM.
O=C(NCCc1ccccc1)c1c(O)c2ccccc2[nH]c1=O showed a TGI (HCC-2998 colon) of over 100 µM, a TGI (MDA-MB-231 breast) of over 100 µM and a TGI (SK-MEL-5 melanoma) of over 100 µM. For the same compound, the TGI (MDA-MB-435) was over 100 µM, the TGI (NCI-H460 lung) was over 100 µM and the TGI (U251 CNS) was over 100 µM. The TGI (BT-549 breast) was over 100 µM, the TGI (SF-268 CNS) was over 100 µM and the TGI (NCI-H23 lung) was over 100 µM. It also gave a TGI (IGROV1 ovarian) of over 100 µM, a TGI (COLO 205 colon) of over 100 µM and a TGI (SNB-75 CNS) of over 100 µM. For the same compound, the TGI (SW-620 colon) was over 100 µM, the TGI (OVCAR-5 ovarian) was over 100 µM and the TGI (EKVX NSCLC) was over 100 µM. The TGI (A549 NSCLC) was over 100 µM, the TGI (MALME-3M melanoma) was over 100 µM and the TGI (A498 renal) was over 100 µM. The TGI (OVCAR-8 ovarian) was over 100 µM, the TGI (HCT-116 colon) was over 100 µM and the TGI (NCI-H226 lung) was over 100 µM. It also gave a TGI (PC-3 prostate) of over 100 µM, a TGI (NCI-H522 lung) of over 100 µM and a TGI (HS 578T breast) of over 100 µM. The TGI (MCF7 breast) was over 100 µM, the TGI (CAKI-1 renal) was over 100 µM and the TGI (SNB-19 CNS) was over 100 µM. The TGI (HL-60(TB) leukemia) was over 100 µM, the TGI (MOLT-4 leukemia) was over 100 µM and the TGI (SF-295 CNS) was over 100 µM. For the same compound, the TGI (RXF 393 renal) was over 100 µM, the TGI (RPMI-8226 leukemia) was over 100 µM and the TGI (SF-539 CNS) was over 100 µM. For the same compound, the TGI (NCI/ADR-RES ovarian) was over 100 µM, the TGI (OVCAR-3 ovarian) was over 100 µM and the TGI (786-0 renal) was over 100 µM. The TGI (MDA-N) was over 100 µM, the TGI (KM12 colon) was over 100 µM and the TGI (SR leukemia) was over 100 µM. The TGI (UO-31 renal) was over 100 µM, the TGI (K-562 leukemia) was over 100 µM and the TGI (CCRF-CEM leukemia) was over 100 µM. The TGI (OVCAR-4 ovarian) was over 100 µM, the TGI (HOP-62 NSCLC) was over 100 µM and the TGI (LOX IMVI melanoma) was over 100 µM. It also gave a TGI (HCT-15 colon) of over 100 µM, a TGI (ACHN renal) of over 100 µM and a TGI (UACC-257 melanoma) of over 100 µM. The TGI (SK-MEL-28 melanoma) was over 100 µM, the TGI (HOP-92 NSCLC) was over 100 µM and the TGI (HT29 colon) was over 100 µM. The TGI (DU-145 prostate) was over 100 µM, the TGI (TK-10 renal) was over 100 µM and the TGI (SN12C renal) was over 100 µM.
